Laboratory results as given in patent EP2891654B1, “Optically pure benzyl-4-chlorophenyl-C-glucoside derivatives as SGLT inhibitors (diabetes mellitus)” (Xuanzhu Pharma Co., Ltd., priority 2014, dated 2015).

Assays:
SGLT-2 = biological target: T1, SGLT-2 (Homo sapiens, UniProt P31639); assay: in-vitro assay: inhibition of sodium dependent [14C]-AMG uptake into CHO cells stably expressing human SGLT-2; type: cell-based; conditions: for IC50: CHO cells stably expressing human SGLT-2, [14C]-AMG uptake, 37°C, 1hr; for Selectivity: ratio SGLT-1 IC50 / SGLT-2 IC50
T1 construct: expressed in transfected cells
T1 sequence (P31639 1-672): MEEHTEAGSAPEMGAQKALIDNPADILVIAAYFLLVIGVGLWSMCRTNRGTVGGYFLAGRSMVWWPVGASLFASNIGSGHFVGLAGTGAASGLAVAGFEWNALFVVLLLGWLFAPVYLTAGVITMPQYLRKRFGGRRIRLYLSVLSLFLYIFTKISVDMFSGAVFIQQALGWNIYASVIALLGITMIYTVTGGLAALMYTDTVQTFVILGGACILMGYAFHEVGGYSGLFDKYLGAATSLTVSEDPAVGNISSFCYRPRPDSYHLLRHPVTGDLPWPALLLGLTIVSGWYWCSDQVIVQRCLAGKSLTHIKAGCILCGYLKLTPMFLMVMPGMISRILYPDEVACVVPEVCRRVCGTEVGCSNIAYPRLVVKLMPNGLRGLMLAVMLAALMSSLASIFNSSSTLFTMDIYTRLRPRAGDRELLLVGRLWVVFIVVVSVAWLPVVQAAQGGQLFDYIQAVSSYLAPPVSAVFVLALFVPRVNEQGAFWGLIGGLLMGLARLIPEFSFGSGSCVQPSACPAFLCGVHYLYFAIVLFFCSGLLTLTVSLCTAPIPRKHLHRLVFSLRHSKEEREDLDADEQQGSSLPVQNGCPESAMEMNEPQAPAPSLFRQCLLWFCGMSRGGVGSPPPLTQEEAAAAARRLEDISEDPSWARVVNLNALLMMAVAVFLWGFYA
Protocol: In the in-vitro assay for the pharmacological activities of the present compounds, the human SGLT-2 and SGLT-1 sequences were transfected to Chinese hamster ovary cells to express stably. By measuring inhibition of the sodium dependent adsorption of [^14C]-labeled […]-D-glucopyranoside (AMG) into the cells, the half-inhibition concentration IC50 was determined.
Buffer A (KRH-Na^+): 120 mM NaCl, 4.7 mM KCI, 1.2 mM MgCl2, 2.2 mM CaCl2, 10 mM HEPES (PH 7.4 with 1 mM Tris).
Buffer A- (KRH-NMG): 120 mM NMG, 4.7 mM KCl, 1.2 mM MgCl2, 2.2 mM CaCl2, 10 mM HEPES (PH 7.4 with 1 mM Tris).
Buffer D: 120 mM NaCl, 4.7 mM KCl, 1.2 mM MgCl2, 2.2 mM CaCl2, 10 mM HEPES, 0.5 mM phlorizin (PH 7.4 with 1 mM Tris).
Assay method: Human SGLT-2 and SGLT-1 sequences were stably expressed in the CHO cells. The cell culture was conducted in a 96-well plate for 12hr. The plate was washed with KRH-Na+ (Buffer A) or KRH-NMG (Buffer A-) buffering solution for three times, 200µL/well. Then the plate was added with a buffering solution containing Buffer A or Buffer A- plus [^14C]-AMG (10 µCi/mL), 100µL/well. The cell culture was conducted at 37°C for 1hr. Then, 100µL of an ice pre-cooled buffering solution (Buffer D) was added to terminate the assay. The plate was washed for five times. Then an ice pre-cooled lytic buffering solution (100mM NaOH solution) was added, 20 µL/well, and the centrifugation at 600rpm was conducted for 5mins. Then Microscint 40 solution was added, 80 µl/well, and the centrifugation at 600rpm was conducted for 5mins. Finally, the radioactivity of [^14C]-AMG was detected with MicroBeta Trilux (purchased from PerkinElmer Co. Ltd.) according to the scintillation counting method, and the half-inhibition concentration IC50 was calculated.

[1] = rat in-vivo pharmacokinetic assay (PO); conditions: Sprague-Dawley (SD), male SD rats, 10 mg/kg; for Tmax / AUC(0-t) / AUC(0-inf) / half-life: plasma; for Tmax: time to peak the concentration in the plasma; for Cmax: peak concentration in the plasma; for AUC(0-t): area under curve from time=0→t; for AUC(0-inf): area under curve from time=0→∞
Protocol: Assay animals: 6-8 weeks aged male SD rats (purchased from Vital River Laboratories), 3 rats per compound, weighing 200-240g.
Solvent: 0.5% MC(methyl cellulose) solution + 0.1% SDS (sodium dodecyl sulfate).
Intragastric administration (PO): See Table 2 Table 2 Administration of compounds in the rat PK (pharmacokinetic) assay
Blood collection: each of 200 µL whole blood were collected at 0.17hr, 0.5hr, 1hr, 2hr, 4hr, 6hr, 8hr, 24hr, 30hr, 48hr, 54hr and 72hr. The collected blood samples were centrifuged at 4°C at 8000rpm in a low temperature high-speed centrifuge (5415R, Eppendorf) for 6mins to separate the blood plasma. The separated plasma was preserved at -80 °C in a refrigerator.
20µL of the plasma was carefully taken out, to which was added 600µL of an internal standard MTBE (methyl tert-butyl ether) solution (containing internal standard dapagliflozin 25ng/ml). The plasma was subjected to a vortex at 1500 rpm for 10mins, and then centrifuged at 12000 rpm for 5mins. 400µL of the supernatant was taken and blow-dried with nitrogen gas. The dried substance was redissolved with 200µL of a redissolving solution (acetonitrile:water=7:3). The solution was subjected to a vortex for 10mins, and analyzed with LC-MS/MS (API4000, Aplplied Biosystems). Table 3. Rat PK (pharmacokinetic) evaluation results (PO) for the compounds

SGLT-1 = biological target: T2, SGLT-1 (Homo sapiens, UniProt P13866); assay: in-vitro assay: inhibition of sodium dependent [14C]-AMG uptake into CHO cells stably expressing human SGLT-1; type: cell-based; conditions: 37°C, 1hr
T2 construct: expressed in transfected cells
T2 sequence (P13866 1-664): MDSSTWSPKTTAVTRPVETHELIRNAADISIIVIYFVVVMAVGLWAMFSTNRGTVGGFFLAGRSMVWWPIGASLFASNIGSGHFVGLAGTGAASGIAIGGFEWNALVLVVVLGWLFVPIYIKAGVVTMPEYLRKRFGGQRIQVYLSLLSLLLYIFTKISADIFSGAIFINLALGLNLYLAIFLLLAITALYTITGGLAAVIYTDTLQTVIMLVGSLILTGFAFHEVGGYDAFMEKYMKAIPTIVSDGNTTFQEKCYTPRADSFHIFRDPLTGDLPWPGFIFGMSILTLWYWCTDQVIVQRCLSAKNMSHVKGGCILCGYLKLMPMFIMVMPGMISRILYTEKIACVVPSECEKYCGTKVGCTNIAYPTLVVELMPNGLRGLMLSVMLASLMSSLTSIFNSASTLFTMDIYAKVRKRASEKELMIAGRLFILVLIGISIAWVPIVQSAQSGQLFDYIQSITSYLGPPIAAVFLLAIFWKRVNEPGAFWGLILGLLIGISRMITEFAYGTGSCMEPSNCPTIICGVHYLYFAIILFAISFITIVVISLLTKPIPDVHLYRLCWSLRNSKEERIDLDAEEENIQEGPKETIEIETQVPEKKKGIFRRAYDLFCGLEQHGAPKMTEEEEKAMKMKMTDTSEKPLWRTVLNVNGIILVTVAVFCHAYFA
Protocol: In the in-vitro assay for the pharmacological activities of the present compounds, the human SGLT-2 and SGLT-1 sequences were transfected to Chinese hamster ovary cells to express stably. By measuring inhibition of the sodium dependent adsorption of [^14C]-labeled […]-D-glucopyranoside (AMG) into the cells, the half-inhibition concentration IC50 was determined. […] Buffer D: 120 mM NaCl, 4.7 mM KCl, 1.2 mM MgCl2, 2.2 mM CaCl2, 10 mM HEPES, 0.5 mM phlorizin (PH 7.4 with 1 mM Tris). Assay method: Human SGLT-2 and SGLT-1 sequences were stably expressed in the CHO cells. […] The plate was washed for five times. […] Finally, the radioactivity of [^14C]-AMG was detected with MicroBeta Trilux (purchased from PerkinElmer Co. Ltd.) according to the scintillation counting method, and the half-inhibition concentration IC50 was calculated.

Row | Structure (SMILES) | IC50 (SGLT-2) [nM] | Selectivity (SGLT-2) | Tmax [1] [h] | IC50 (SGLT-1) [nM] | Cmax [1] [ng/mL] | AUC(0-t) [1] [ng·h/mL] | AUC(0-inf) [1] [ng·h/mL] | half-life [1] [h]
1 | OC[C@H]1O[C@@H](c2ccc(Cl)c(Cc3ccc(O[C@H]4C[C@@H]5C[C@@H]5C4)cc3)c2)[C@H](O)[C@@H](O)[C@@H]1O [Compound represented by formula (II), (2S,3R,4R,5S,6R)-2-(3-(4-(((1R,3s,5S)-bicyclo[3.1.0]hexan-3-yl)oxy)benzyl)-4-chlorophenyl)-6-(hydroxymethyl)tetrahydro-2H-pyran-3,4,5-triol] | 2.5 | 6886.93 | 1 | 17200 |  |  |  | 
2 | OC[C@H]1O[C@@H](c2ccc(Cl)c(Cc3ccc(O[C@@H]4C[C@@H]5C[C@@H]5C4)cc3)c2)[C@H](O)[C@@H](O)[C@@H]1O [Compound represented by formula (III), (2S,3R,4R,5S,6R)-2-(3-(4-(((1R,3r,5S)-bicyclo[3.1.0]hexan-3-yl)oxy)benzyl)-4-chlorophenyl)-6-(hydroxymethyl)tetrahydro-2H-pyran-3,4,5-triol] | 7.83 |  |  |  |  |  |  | 
3 | OC[C@H]1O[C@H](c2ccc(Cl)c(Cc3ccc(O[C@H]4C[C@@H]5C[C@@H]5C4)cc3)c2)[C@H](O)[C@@H](O)[C@@H]1O [Compound represented by formula (IV), (2R,3R,4R,5S,6R)-2-(3-(4-(((1R,3s,5S)-bicyclo[3.1.0]hexan-3-yl)oxy)benzyl)-4-chlorophenyl)-6-(hydroxymethyl)tetrahydro-2H-pyran-3,4,5-triol] | 1110 |  |  |  |  |  |  | 
4 | OC[C@H]1O[C@H](c2ccc(Cl)c(Cc3ccc(O[C@@H]4C[C@@H]5C[C@@H]5C4)cc3)c2)[C@H](O)[C@@H](O)[C@@H]1O [Compound represented by formula (V), (2R,3R,4R,5S,6R)-2-(3-(4-(((1R,3r,5S)-bicyclo[3.1.0]hexan-3-yl)oxy)benzyl)-4-chlorophenyl)-6-(hydroxymethyl)tetrahydro-2H-pyran-3,4,5-triol] | 282 |  |  |  |  |  |  | 
5 | OC[C@H]1OC(c2ccc(Cl)c(Cc3ccc(OC4CC5CC5C4)cc3)c2)[C@H](O)[C@@H](O)[C@@H]1O (some centres unmarked) [Reference compound 1] | 3.63 | 660.52 | 2 | 2400 | 4140 | 69600 | 70300 | 10.3
6 | OC[C@H]1O[C@@H](c2ccc(Cl)c(Cc3ccc(OC4CC5CC5C4)cc3)c2)[C@H](O)[C@@H](O)[C@@H]1O (some centres unmarked) [Reference compound 2] |  |  | 2 |  | 4980 | 69300 | 69400 | 8.18
